In patent publication US20260048205A1, “SYSTEMS AND METHODS FOR MIXING SYRINGE VALVE ASSEMBLIES AND SYRINGE FORMULATIONS” (Tolmar International Limited, priority 2024, published 2026):

Experiments:
[1] = assay type: physicochemical
Source text: To produce the drug/solvent bulk solution comprising the API (LA), the desired amount of the LA was combined with the solvent N-methyl-2-pyrrolidone (NMP), in the indicated amounts (see individual experiments below). The API and solvent were combined in a glass vial or jar. Jars were mixed using the jar mill, Turbula, or shaker at room temperature until homogeneous. LA is soluble in NMP and can load higher concentrations (at least 40% w/w). After dissolving the API in the organic solvent, the bulk solution was manually filled into syringes and capped with a tip cap. The syringes used for filling were either 1.2 mL male polypropylene syringes, 1.2 mL male cyclic olefin copolymer syringes or 1 mL male cyclic olefin copolymer syringes. In some instances, the two syringes were coupled via the connector prior to packaging. Filled syringes were then packaged in labeled foil pouches or a plastic tray pack with foil lid with a Syringe A (polymer-solvent solution) and a desiccant pack and the pouches were sealed. After filling the syringes with the formulations, they were terminally sterilized with an external radiation dose of more than 15 kGy and less than 60 kGy from irradiation processing (E-beam, Gamma or X-ray). After terminal sterilization, the syringes were stored under refrigerated conditions (e.g., 2-8° C.) or accelerated conditions (>25° C. see individual experiments).

LA gelation studies = assay type: physicochemical; conditions: drug solution in NMP; e-beam irradiated; 60° C., 150 rpm, up to 16 days
Experimental: Drug solutions were prepared as described above and filled into syringes or glass vials. Syringes were untreated, contained various amounts of silicone, or were plasma coated for lubrication. Samples were irradiated by e-beam irradiation at not less than 25 kGy and stored at accelerated conditions of 60° C. with agitation at 150 rpm for up to 16 days. Samples were inspected periodically to determine if the drug solution remained a solution or had formed a solid/gel by an inversion test. Samples that had “gelled” were transferred to 5° C. for subsequent testing. The gelation rate for each sample was calculated as Rate=1/(simulated 5° C. age at time of gelation in days). The Arrhenius equation was used to determine the simulated age, assuming standard reaction rate doubling for every 10° C. increase in temperature. […] Data was analyzed using JMP. […] Container type and lubrication were not significant. Samples were tested for leuprolide content by HPLC. Leuprolide content was then converted to leuprolide acetate by multiplying by 1.078 (based on molecular mass ratios). A marked difference in leuprolide acetate content between the gelled and non-gelled samples was seen, with the tipping point between solution and solid/gelled samples occurring at about 45% LA.

solubility / loading in NMP [1]: at least 40 % w/w
tipping point between solution and solid/gelled samples (LA gelation studies): about 45 % LA
Compound: CCNC(=O)[C@@H]1CCCN1C(=O)[C@H](CCCNC(=N)N)NC(=O)[C@H](CC(C)C)NC(=O)[C@@H](CC(C)C)NC(=O)[C@H](Cc1ccc(O)cc1)NC(=O)[C@H](CO)NC(=O)[C@H](Cc1c[nH]c2ccccc12)NC(=O)[C@H](Cc1c[nH]cn1)NC(=O)[C@@H]1CCC(=O)N1 [LA, leuprolide acetate]
